By Kd is commonly meant the free concentration of one partner at which half of the binding sites on the other are occupied at equilibrium, for simple one-to-one binding. The Tmax is the time at which the peak concentration occurs. One may read the Cmax as the maximum level reached in the sampled fluid or tissue.

Where two headings read alike, the source gives them in different places.

Series [1] addresses T1, K-2 to K-3 domains of human plasminogen (Homo sapiens, UniProt P00747).
T1 construct: that for the K-2 to K-3 domains of human plasminogen; made in house
T1 sequence (P00747 184-352 limits assumed): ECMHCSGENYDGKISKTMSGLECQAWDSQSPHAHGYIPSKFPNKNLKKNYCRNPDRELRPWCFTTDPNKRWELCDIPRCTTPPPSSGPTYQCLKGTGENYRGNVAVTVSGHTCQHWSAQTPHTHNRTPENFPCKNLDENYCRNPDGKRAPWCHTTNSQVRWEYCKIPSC
Kind of series: ITC binding to human plasminogen K-2 to K-3. The method, then: The nucleotide sequence encoding the human LPA gene (NP_005568.2) was inserted into a mammalian expression vector containing a cytomegalovirus promoter. Protein expression was performed by transient transfection of human embryonic kidney 293 (HEK293) cells cultured in serum-free medium. The culture medium was collected five days after transfection and human apo(a) protein was purified using L-lysine affinity chromatography. Nucleotide sequences encoding various KIV domains of human apo(a) and human and rat plasminogen were inserted into a pET21a Escherichia coli expression vector. […] All protein concentrations were determined by A280. […] The microsyringe was loaded with a solution of the respective compounds, with the concentration measured by quantitative nuclear magnetic resonance, and was inserted into the calorimetric cell prefilled with the respective recombinant proteins of known concentration in ITC buffer. […] Thermodynamic parameters were calculated using the basic equation of thermodynamics (ΔG = ΔH - TΔS = -RTlnKd), where ΔG, ΔH and ΔS are the changes in free energy, enthalpy and entropy of binding, respectively; Kd is the equilibrium dissociation constant; T is the absolute temperature ([…]); and R is the gas constant (1.987 cal mol^-1 K^-^1). […]

Series [2] deals with Plg mRNA. As to the kind of experiment: Rat hepatic Plg mRNA after oral dosing. It counts as in vivo. The settings on record: rats, daily oral dosing. Here is the method: Male Sprague Dawley rats (Charles River, average body weight 310 g, aged eight to nine weeks old) were housed in cages with a standard light cycle (12-h light, 12-h dark), at room temperature (22 ± 4 °C), with a relative humidity of 30–70%. Rats were identified by numbers on the cage cards. After arrival, rats were fed on a normal diet (Harlan Teklad diet 2014) and randomized to treatment groups (n = 5 per group) by baseline plasma plasminogen concentration and activity using a BRAT. LSN3441732 and LY3473329 were administered QD orally at three dose levels (3.7, 12.3 and 37 mg kg^−1; 3.2, 10.5 and 31.6 mg kg^−1 per dose, respectively) or vehicle (10 ml kg^−1, 1% HEC, 0.25% Tween-80, Antifoam) for four days. Terminal blood was drawn under general anaesthesia 24 h after the day-4 oral dose. Plasma samples were collected via the abdominal aorta into a premeasured anticoagulant BD Vacutainer used for blood collection (2.7 ml, buffered sodium citrate). […]
RNA was isolated from the liver using the PureLink RNA Mini Kit (Invitrogen) and quantified using the NanoDrop spectrophotometer (Thermo Fisher Scientific). […] Quantitative PCR was conducted using TaqMan reagents and primers (Plg Rn00585167_m1, Gapdh Rn99999916_s1). Relative quantitation was calculated using the comparative Ct method. Statistical significance was evaluated using JMP v.16.1.0 software (SAS).

Series [3] in a line: Pharmacokinetics in monkey plasma after oral dosing. Format: in vivo. The settings on record: for AUC(0-t): day 15, read-out: AUC(0-96 hr). Here is the method: Plasma samples were collected from all monkeys before dosing and at four-hour time points only on days 1, 3, 5, 9 and 14. A full PK profile was obtained in the first three monkeys of each dose group on day 15, collecting samples before dosing and 1, 2, 4, 8, 12, 24, 48 and 96 h after dosing. Concentrations of compounds were evaluated in plasma samples using a non-GLP LC–MS/MS assay. The non-compartmental plasma PK parameters were calculated using Watson (v.7.5).

In series [1], `Cl.Cl.O=C(Nc1cccc(C[C@H](C(=O)O)[C@H]2CCNC2)c1)Nc1cccc(C[C@H](C(=O)O)[C@H]2CCNC2)c1` [LSN3441732] yielded a dissociation constant (Kd) of 1600 nM. Besides, in series [2], the “levels of hepatic Plg mRNA” value is “unchanged”.
As to `O=C(O)[C@@H](Cc1cccc(CN(Cc2cccc(C[C@H](C(=O)O)[C@H]3CCNC3)c2)Cc2cccc(C[C@H](C(=O)O)[C@H]3CCNC3)c2)c1)[C@H]1CCNC1` [LY3473329], the Tmax in series [3] (Chinese cynomolgus, oral 1 mg/kg, day 15) worked out at 7 ± 5.7 h; in series [3] (Chinese cynomolgus, oral 100 mg/kg, day 15), 1 ± 1 h. The same compound came in with a Cmax in series [3] (Chinese cynomolgus, oral 10 mg/kg, day 15) of 3.47 µM. Also, the AUC(0-t) was 207 µM·h in series [3] (Chinese cynomolgus, oral 10 mg/kg) and 294 µM·h in series [3] (cynomolgus, oral 100 mg/kg).

For the origin of these results see publication PMC11111404, “Discovery of potent small-molecule inhibitors of lipoprotein(a) formation” (Nature, 2024).
